Here are results for 17 compounds from patent publication US20230067929A1, “HETEROCYCLIC DERIVATIVES, PHARMACEUTICAL COMPOSITIONS AND THEIR USE IN THE TREATMENT, AMELIORATION OR PREVENTION OF CANCER” (Tolremo Therapeutics AG, priority 2018, published 2023).

One assay relates to A375 cells. Description: A375 cell immunofluorescence assay (with 1 μM S1152 and 0.5 μM S1008), EC50. The class given is cell-based. The settings on record: 1 μM S1152 + 0.5 μM S1008, one day, ratio FL2/FL3 staining (sc-365823 antibody). The procedure, abridged:
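A375 cells were treated for 1 day with 1 μM S1152, 0.5 μM S1008 and compound dose ranges in DMEM/10% FCS/2 mM glutamine, then fixed, permeabilized and immunostained (secondary antibody 2 μg/ml). FL2 (500-530 nm) signal was measured in propidium iodide-defined objects (FL3, 565-600 nm). The normalized ln FL2/ln FL3 ratio was log-transformed, and EC50 came from a 4-parameter fit.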
A word on the EC50: it is the midpoint of the concentration-response curve. Take `COc1cncc(-c2cc(Cc3cccc(F)c3)nc(C3CCCN(C(C)=O)C3)n2)c1` (centres unmarked): the EC50 was more than 10 µM.
Consider `CC(=O)N1CC(C)CC(c2nc(Nc3cccc(F)c3)cc(-c3cccnc3)n2)C1` (centres unmarked), for which the EC50 was less than 1 µM.
In the case of `CCC(=O)N1CCCC(c2nc(Nc3cccc(F)c3)cc(-c3ccsc3)n2)C1` (centres unmarked), the EC50 is more than 10 µM.
For `CC(=O)N1CCCC(c2nc(Nc3cccc(F)c3)cc(-c3cncc(C(=O)N4CCOCC4)c3)n2)C1` (centres unmarked), the EC50 was 1 to 10 µM.
In the case of `CC(=O)N1CCCC(c2cc(-c3cccnc3)cc(Nc3cccc(F)c3)n2)C1` (centres unmarked), the EC50 fell in the range of 1 to 10 µM.
For `CCC(=O)N1CCCC(c2nc(-c3cccnc3)cc(N(C)c3cccc(F)c3)n2)C1` (centres unmarked), the EC50 was in the range of 1 to 10 µM.
For the compound `COc1cncc(-c2cc(Nc3cccc(C)c3)nc(C3CCCN(C(C)=O)C3)n2)c1` (centres unmarked), the EC50 was less than 1 µM.
For `COc1cncc(-c2cc(Nc3cccc(F)c3)nc(C3CCCN(C(C)=O)C3)n2)c1` (centres unmarked), the EC50 is less than 1 µM.
Take `CCC(=O)N1CCCC(c2nc(Nc3cccc(F)c3)cc(Nc3cccc(F)c3)n2)C1` (centres unmarked): the EC50 is more than 10 µM.
On to `CCC(=O)N1CCCC(c2nc(Nc3cccc(F)c3)cc(-c3cnc(OC(C)C)s3)n2)C1` (centres unmarked), for which the EC50 was more than 10 µM.
Consider `CC(=O)N1CCCC(c2nc(Nc3ccnc(C)c3)cc(-c3cccnc3)n2)C1` (centres unmarked), for which the EC50 fell in the range of 1 to 10 µM.
Regarding `CCC(=O)N1CCCC(c2nc(Oc3cccc(F)c3)cc(-c3cccnc3)n2)C1` (centres unmarked), the EC50 was more than 10 µM.
Regarding `CC(=O)N1CCCC(c2nc(Nc3cccc(F)c3)cc(-c3ccc(N4CCN(C)CC4)nc3)n2)C1` (centres unmarked), the 50% effective concentration (EC50) is more than 10 µM.
Same read-out and setting: with `CC(=O)N1CCCC(c2nc(Nc3ccccc3)cc(-c3cncc4[nH]ccc34)n2)C1` (centres unmarked) the figure was less than 1 µM; with `CC(=O)N1C[C@H](c2nc(Nc3cccc(C)c3)cc(-c3cncc4[nH]ncc34)n2)CC[C@@H]1C`, 1 to 10 µM; with `COc1cncc(-c2cc(Nc3cccc(Cl)c3)nc([C@@H]3CC[C@H](C)N(C(C)=O)C3)n2)c1`, less than 1 µM.

For a further assay, the target named is T1, TRIM33(PHD, Bromo.) (Homo sapiens, UniProt Q9UPN9).
T1 construct: TRIM33(PHD, Bromo.)
T1 sequence (Q9UPN9 1-1127): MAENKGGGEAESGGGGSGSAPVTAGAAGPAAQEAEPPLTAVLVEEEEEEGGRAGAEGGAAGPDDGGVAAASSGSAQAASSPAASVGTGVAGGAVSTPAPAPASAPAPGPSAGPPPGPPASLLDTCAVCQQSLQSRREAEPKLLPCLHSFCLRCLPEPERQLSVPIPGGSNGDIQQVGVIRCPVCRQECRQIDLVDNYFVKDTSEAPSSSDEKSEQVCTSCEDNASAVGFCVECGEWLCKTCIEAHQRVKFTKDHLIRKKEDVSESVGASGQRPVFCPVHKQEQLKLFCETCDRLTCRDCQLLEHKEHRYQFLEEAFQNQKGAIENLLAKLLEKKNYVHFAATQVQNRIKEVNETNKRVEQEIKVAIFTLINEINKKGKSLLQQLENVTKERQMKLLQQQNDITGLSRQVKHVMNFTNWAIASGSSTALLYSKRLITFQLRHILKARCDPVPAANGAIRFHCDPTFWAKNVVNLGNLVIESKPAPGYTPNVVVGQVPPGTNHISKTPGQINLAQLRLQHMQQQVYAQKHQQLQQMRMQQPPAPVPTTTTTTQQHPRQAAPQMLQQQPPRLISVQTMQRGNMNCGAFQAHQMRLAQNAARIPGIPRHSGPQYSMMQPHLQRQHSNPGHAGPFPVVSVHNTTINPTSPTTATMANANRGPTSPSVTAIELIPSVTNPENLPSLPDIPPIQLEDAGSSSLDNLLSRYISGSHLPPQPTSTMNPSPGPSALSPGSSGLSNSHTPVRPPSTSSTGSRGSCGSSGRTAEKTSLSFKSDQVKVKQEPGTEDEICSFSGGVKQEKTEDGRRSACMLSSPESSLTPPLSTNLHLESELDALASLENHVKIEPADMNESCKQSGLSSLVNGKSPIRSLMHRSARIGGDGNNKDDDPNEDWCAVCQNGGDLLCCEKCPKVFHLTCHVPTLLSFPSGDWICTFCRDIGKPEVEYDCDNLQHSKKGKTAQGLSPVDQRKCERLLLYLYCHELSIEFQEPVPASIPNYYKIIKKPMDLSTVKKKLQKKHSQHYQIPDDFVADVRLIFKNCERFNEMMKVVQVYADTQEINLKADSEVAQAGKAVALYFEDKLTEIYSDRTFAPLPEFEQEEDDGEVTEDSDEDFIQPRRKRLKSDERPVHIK
Description: BromoKdMAX (BROMOscan) TRIM33(PHD, Bromo.). The class given is binding. The settings on record: TRIM33(PHD, Bromo.) (Entrez TRIM33). The protocol:
A BromoKdMAX was performed at DiscoverX.
BROMOscan™ is a novel industry leading platform for identifying small molecule bromodomain inhibitors. Based on proven KINOMEscan™ technology, BROMOscan™ employs a proprietary ligand binding site-directed competition assay to quantitatively measure interactions between test compounds and bromodomains. This robust and reliable assay panel is suitable for high throughput screening and delivers quantitative ligand binding data to facilitate the identification and optimization of potent and selective small molecule bromodomain inhibitors.
For the Bromodomain assays, T7 phage strains displaying bromodomains were grown in parallel in 24-well blocks in an E. coli host derived from the BL21 strain. E. coli were grown to log-phase and infected with T7 phage from a frozen stock (multiplicity of infection=0.4) and incubated with shaking at 32° C. until lysis (90-150 minutes). The lysates were centrifuged (5,000×g) and filtered (0.2 μm) to remove cell debris. […] The liganded beads were blocked with excess biotin and washed with blocking buffer (SeaBlock (Pierce), 1% BSA, 0.05% Tween 20, 1 mM DTT) to remove unbound ligand and to reduce non-specific phage binding. […] Kds were determined using an 11-point 3-fold compound dilution series with one DMSO control point. […] The bromodomain concentration in the eluates was measured by qPCR.
In general, Kd refers to a measure of binding affinity in units of concentration. A lower Kd goes with tighter binding. `COc1cncc(-c2cc(Nc3cccc(F)c3)nc([C@@H]3CC[C@H](C)N(C(C)=O)C3)n2)c1` [Compound 00212, (−)-1-((2S,5R)-5-(4-((3-fluorophenyl)amino)-6-(5-methoxypyridin-3-yl)pyrimidin-2-yl)-2-methylpiperidin-1-yl)ethan-1-one] registered a Kd of more than 10 µM.
